In ChEMBL document CHEMBL1201862, “PubChem BioAssay data set” (2004):
The source made the active and inactive calls.

Key:
[1] = biological target: T1, Runt-related transcription factor 1/Core-binding factor subunit beta (Homo sapiens, UniProt Q01196+Q13951); experiment: disruptors of Runt domain/CBFb-SMMHC interaction – biochemical, FRET, Cerulean-Runt, Venus-CBFb-SMMHC, uHTS, […] (AID 1434); assay type: protein assay
[2] = biological target: T2, SUMO-activating enzyme (Homo sapiens, UniProt Q9UBT2); experiment: blockers of UBC9-mediated SUMO conjugation – biochemical, AlphaScreen, SUMOylation inhibitor project, confirmation (AID 2018); assay type: functional
[3] = biological target: T2, SUMO-activating enzyme; experiment: blockers of SAE1/SAE2–UBC9 SUMO transfer – biochemical, HTRF, uHTS, primary screen (AID 2006); assay type: protein-complex assay
[4] = biological target: T3, Corticotropin-releasing factor receptor 2/Corticotropin-releasing factor-binding protein (Homo sapiens, UniProt P24387+Q13324); experiment: activators of CRF receptor 2 with binding protein – uHTS hits, confirmation (AID 602473); assay type: functional; conditions: read-out: EC50_Mean
T3 sequence (Q13324 whole entry): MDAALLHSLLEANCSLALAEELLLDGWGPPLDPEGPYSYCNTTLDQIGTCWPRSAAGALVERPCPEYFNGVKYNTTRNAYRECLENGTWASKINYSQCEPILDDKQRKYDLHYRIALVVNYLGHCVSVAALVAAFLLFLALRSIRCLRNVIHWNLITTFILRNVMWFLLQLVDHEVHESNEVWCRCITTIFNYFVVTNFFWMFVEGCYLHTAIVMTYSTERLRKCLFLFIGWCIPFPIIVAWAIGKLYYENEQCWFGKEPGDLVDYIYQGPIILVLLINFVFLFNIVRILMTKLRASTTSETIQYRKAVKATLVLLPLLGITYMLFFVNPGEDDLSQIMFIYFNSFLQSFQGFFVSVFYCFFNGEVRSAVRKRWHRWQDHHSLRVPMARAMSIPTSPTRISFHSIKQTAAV
T3 sequence (P24387 whole entry): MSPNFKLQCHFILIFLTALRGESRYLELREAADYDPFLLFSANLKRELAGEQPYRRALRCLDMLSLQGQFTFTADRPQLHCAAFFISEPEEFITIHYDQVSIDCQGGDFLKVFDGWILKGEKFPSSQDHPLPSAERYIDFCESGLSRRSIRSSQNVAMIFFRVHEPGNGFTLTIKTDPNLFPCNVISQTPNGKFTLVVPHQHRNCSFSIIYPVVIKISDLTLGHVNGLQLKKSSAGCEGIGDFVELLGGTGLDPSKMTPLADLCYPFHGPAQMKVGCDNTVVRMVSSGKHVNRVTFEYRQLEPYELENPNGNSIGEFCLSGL

[5] = biological target: T1, Runt-related transcription factor 1/Core-binding factor subunit beta; experiment: Runt domain/CBFb-SMMHC interaction disruptors – biochemical, TR-FRET (AID 1438); assay type: protein assay
[6] = biological target: Lysine-specific demethylase 4A (Homo sapiens, UniProt O75164); experiment: inhibition of JMJD2A H3K9me3 demethylation – biochemical, DELFIA europium, cherry-picked samples, selectivity assay for GASC-1 inhibitor project, dose response (AID 488840)
[7] = biological target: Lysine-specific demethylase 4C (Homo sapiens, UniProt Q9H3R0); experiment: inhibition of JMJD2C H3K9me3 demethylation – biochemical, DELFIA europium, cherry-picked samples, dose response (AID 488835); assay type: functional
[8] = biological target: T4, Kappa-type opioid receptor (Homo sapiens, UniProt P41145); experiment: SAR analysis of small molecule agonists of the kappa opioid receptor via a luminescent beta-arrestin assay - Set 3. [Related pubchem assays (depositor defined):AID1777, AID1785, AID1786, AID1966, AID2133, AID2136, AID2284, AID2500]; assay type: functional
[9] = biological target: Exodeoxyribonuclease V (Escherichia coli (strain K12), UniProt P04993+P07648+P08394); experiment: RecBCD inhibition via phage-restricted bacterial growth – absorbance, V66 E. coli, mutant T4 phage, counter-screen for AddAB inhibitor project, dose response (AID 492957); assay type: functional, cell-based, Escherichia coli str. K-12 substr. MG1655
[10] = Counterscreen for AddAB inhibitors: absorbance-based bacterial cell-based high throughput dose response assay for inhibitors of bacterial viability. [Related pubchem assays (depositor defined):AID435030, AID449728, AID449731, AID488942, AID488955, AID488956]; assay type: functional
[11] = biological target: T5, Polyadenylate-binding protein 1 (Homo sapiens, UniProt P11940); experiment: SAR analysis for the identification of translation initiation inhibitors (PABP) via an Electrophoretic Mobility Shift Dose Response Assay. [Related pubchem assays (depositor defined):AID2012, AID2014, AID2030]; assay type: functional
[12] = biological target: T6, Eukaryotic translation initiation factor 4H (Homo sapiens, UniProt Q15056); experiment: eIF4H binding inhibition – biochemical, uHTS, fluorescence polarization, translation initiation inhibitor project, primary screen (AID 2012)
[13] = biological target: Estrogen receptor beta (Homo sapiens, UniProt Q92731);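 note: recombinant ER-beta bound to coactivator SRC1 peptide in presence of estradiol agonist; inhibitors block coactivator peptide binding and lower the FRET signal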
[14] = biological target: T5, Polyadenylate-binding protein 1; experiment: blockers of PABP interaction with poly(A) – biochemical, fluorescence polarization, […] (AID 2014)
[15] = biological target: T6, Eukaryotic translation initiation factor 4H; experiment: inhibitors of translation initiation factor eIF4H – SAR follow-up (AID 435011); assay type: functional
[16] = biological target: T5, Polyadenylate-binding protein 1; experiment: PABP inhibition in translation initiation, SAR follow-up (AID 435018); assay type: functional
[17] = biological target: Troponin, cardiac muscle (Homo sapiens, UniProt P19429+P45379+P63316); experiment: Fluorescence-based biochemical high throughput dose response assay for activators of the calcium sensitivity of cardiac Regulated Thin Filaments (RTF). [Related pubchem assays (depositor defined):AID493008, AID493018, AID504382, AID504383]; assay type: protein-complex assay
[18] = biological target: SUMO E1/E2 (Homo sapiens, UniProt P63279+Q9UBE0+Q9UBT2); experiment: SAR analysis of SUMOylation using HTRF in an in-Vitro dose response assay. [Related pubchem assays (depositor defined):AID2006, AID2011, AID2018, AID2069, AID2658]; assay type: functional
[19] = biological target: T7, Voltage-gated N-type calcium channel alpha-1B subunit/Amyloid beta A4 precursor protein-binding family A member 1 (Homo sapiens, UniProt Q00975+Q02410); experiment: disruptors of Mint-PDZ/N-type channel peptide interaction – biochemical, HTRF, SAR follow-up (AID 2489); assay type: functional
[20] = biological target: T7, Voltage-gated N-type calcium channel alpha-1B subunit/Amyloid beta A4 precursor protein-binding family A member 1; experiment: disruptors of Mint-PDZ/N-type channel peptide interaction – biochemical, HTRF, set 2, SAR follow-up (AID 434980); assay type: functional
[21] = biological target: T4, Kappa-type opioid receptor; experiment: SAR analysis of small molecule agonists of the kappa opioid receptor via a luminescent beta-arrestin assay. [Related pubchem assays (depositor defined):AID1777, AID1786, AID1966, AID2133, AID2136, AID2348, AID2352, AID2357, AID2359, AID2370, AID2420, AID2478, AID2491, AID2492, AID2493, AID2497, AID2498, AID2500, AID449737, AID488822, AID488842]; assay type: functional
[22] = biological target: T8, Delta-type opioid receptor (Homo sapiens, UniProt P41143); experiment: HTS Image-Based Screen for Agonists of the DOR Receptor. [Related pubchem assays (depositor defined):AID1777, AID1786, AID2133]; assay type: functional
[23] = biological target: T9, Mu-type opioid receptor (Homo sapiens, UniProt P35372); experiment: HTS Image-Based Screen for Agonists of the MOR Receptor. [Related pubchem assays (depositor defined):AID1777, AID1785, AID1786, AID2133]; assay type: functional
[24] = biological target: T8, Delta-type opioid receptor; experiment: DOR agonists, SAR follow-up, image-based (AID 2370); assay type: functional
[25] = biological target: T9, Mu-type opioid receptor; experiment: mu opioid receptor blockers – image-based, SAR follow-up (AID 2420); assay type: functional;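 note: compounds added before stimulation of receptor with agonist DAMGO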
[26] = biological target: Neuropeptide Y receptor type 1 (Homo sapiens, UniProt P25929); assay type: functional;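 note: HEK293 cells with a CNG channel challenged with NPY then isoproterenol; potency as antagonist that reverses NPY suppression of cAMP signal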
[27] = biological target: T9, Mu-type opioid receptor; experiment: mu opioid receptor activators, image-based, SAR follow-up (AID 2352); assay type: functional
[28] = biological target: Neuropeptide Y receptor type 2 (Homo sapiens, UniProt P49146); assay type: functional, cell-based;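 note: HEK293 cells expressing the receptor and a CNG channel; stimulus was NPY near EC95 followed by isoproterenol to raise cAMP; antagonist potency measured as restoring cAMP signal that NPY suppresses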
[29] = biological target: T10, Heat shock factor protein 1 (Mus musculus, UniProt P38532); experiment: enhancement of HSF1-driven luciferase signal – cell-based, NIH3T3, luminescence, dose retest, confirmation (AID 435004); assay type: functional;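 note: stress induced by proteasome inhibitor MG132 added 30 min after compound; luciferase reporter driven by HSF1 response element in NIH3T3 cells; actives raise luminescence as potentiators of the MG132 stress response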
T10 sequence (P38532 whole entry): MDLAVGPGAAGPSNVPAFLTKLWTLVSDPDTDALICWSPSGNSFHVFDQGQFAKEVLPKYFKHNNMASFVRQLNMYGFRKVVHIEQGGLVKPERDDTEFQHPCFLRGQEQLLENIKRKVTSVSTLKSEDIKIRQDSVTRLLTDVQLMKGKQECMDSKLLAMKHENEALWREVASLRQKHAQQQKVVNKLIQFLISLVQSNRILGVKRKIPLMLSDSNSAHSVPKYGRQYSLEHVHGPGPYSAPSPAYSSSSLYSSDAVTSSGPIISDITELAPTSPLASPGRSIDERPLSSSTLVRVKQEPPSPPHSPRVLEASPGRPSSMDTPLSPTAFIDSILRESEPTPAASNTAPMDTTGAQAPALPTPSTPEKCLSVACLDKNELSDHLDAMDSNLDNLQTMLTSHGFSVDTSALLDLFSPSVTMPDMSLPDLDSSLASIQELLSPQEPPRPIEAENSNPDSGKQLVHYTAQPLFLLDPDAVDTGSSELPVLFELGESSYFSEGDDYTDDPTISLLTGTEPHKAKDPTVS

[30] = biological target: T4, Kappa-type opioid receptor; assay type: functional
[31] = biological target: T4, Kappa-type opioid receptor; assay type: functional; remark: listed apart in the source
[32] = biological target: T8, Delta-type opioid receptor; experiment: delta opioid receptor blockers – image-based, SAR follow-up (AID 2357); assay type: functional
[33] = biological target: T8, Delta-type opioid receptor; experiment: HTS Image-Based Screen for Antagonists of the DOR Receptor. [Related pubchem assays (depositor defined):AID1777, AID1785, AID1786, AID2133]; assay type: functional
[34] = biological target: T4, Kappa-type opioid receptor; experiment: kappa opioid receptor blockers, image-based, SAR follow-up (AID 2348); assay type: functional
[35] = biological target: T4, Kappa-type opioid receptor; experiment: kappa opioid receptor activation potency – imaging, image-based, SAR follow-up (AID 2359); assay type: functional
[36] = biological target: T11, Sphingosine 1-phosphate receptor 4 (Homo sapiens, UniProt O95977); experiment: Late-stage fluorescence dose response cell-based assay to identify agonists of the Sphingosine 1-Phosphate Receptor 4 (S1P4): purchased compounds EC50. [Related pubchem assays (depositor defined):AID1509, AID1523, AID1563, AID1686, AID1701, AID1801]; assay type: functional
T11 sequence (O95977 whole entry): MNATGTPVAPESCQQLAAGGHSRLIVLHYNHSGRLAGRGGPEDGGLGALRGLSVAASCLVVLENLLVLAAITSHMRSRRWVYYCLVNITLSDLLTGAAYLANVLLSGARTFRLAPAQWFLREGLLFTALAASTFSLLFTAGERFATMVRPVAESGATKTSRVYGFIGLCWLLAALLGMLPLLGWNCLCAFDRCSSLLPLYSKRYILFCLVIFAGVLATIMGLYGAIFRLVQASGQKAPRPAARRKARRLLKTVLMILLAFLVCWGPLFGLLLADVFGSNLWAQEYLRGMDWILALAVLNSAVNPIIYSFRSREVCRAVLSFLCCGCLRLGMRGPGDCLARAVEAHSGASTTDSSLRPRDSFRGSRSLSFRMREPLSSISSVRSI

Cc1ccc(S(=O)(=O)c2cc3c(=O)n4ccccc4nc3n(Cc3ccco3)c2=N)cc1
IC50 [1]: 5.08 µM (active) | IC50 [2]: 13.4 µM (active) | IC50 [3]: 3.93 µM (active) | EC50 [4]: > 53 µM (inactive) | IC50 [5]: 58.6 µM (inactive)

CCCCn1c(-c2ccsc2)nc2c1c(=O)[nH]c(=O)n2CCC
AC50 [6]: 12.2 µM (active) | AC50 [7]: 4.19 µM (active)

Brc1ccc(CSc2nnc(-c3ccncc3)n2Cc2ccco2)cc1
EC50 [8]: > 20 µM (inactive)

O=C(CSc1nc2ccccc2o1)Nc1ccc(N2CCOCC2)cc1
IC50 [9]: > 119 µM (inactive) | IC50 [10]: > 119 µM (inactive)

CCOC(=O)N1CCC(NC(=O)c2cccc3c2C(=O)N(c2ccc(OC)cc2)C3)CC1
IC50 [11]: 10 µM (active) | IC50 [12]: 9.51 µM (active) | IC50 [13]: > 50 µM (not active) | IC50 [14]: 76.2 µM (active) | IC50 [15]: 6.47 µM (active) | IC50 [16]: > 100 µM (inactive)

CCOc1cc(N2CCOCC2)c(OCC)cc1NC(=O)CCS(=O)(=O)c1ccc(Cl)cc1
EC50 [17]: > 71.5 µM (inactive)

O=C(OCC(=O)N1CCc2ccccc2C1)c1cc(-c2ccco2)nc2ccccc12
IC50 [18]: 3.76 µM (active) | IC50 [19]: > 56.8 µM (inactive) | IC50 [20]: 10.2 µM (active)

Brc1ccc(CSc2nnc(-c3ccccn3)n2Cc2ccco2)cc1
EC50 [21]: 1.92 µM (active) | EC50 [22]: > 32 µM (inactive) | EC50 [23]: > 32 µM (inactive) | EC50 [24]: > 32 µM (inactive) | IC50 [25]: > 32 µM (inactive) | IC50 [26]: 7.44 µM (active) | EC50 [27]: > 32 µM (inactive) | IC50 [28]: 8.06 µM (active) | EC50 [29]: 36.6 µM (active) | EC50 [30]: 1.88 µM | EC50 [31]: 5.64 µM | IC50 [32]: > 32 µM (inactive) | IC50 [33]: > 32 µM (inactive) | IC50 [34]: > 32 µM (inactive) | EC50 [35]: 1.36 µM (active)

CCCc1ccc(C(=O)C(C)OC(=O)c2c(C)nn(Cc3ccccc3)c2Cl)cc1 (stereo unspecified)
EC50 [36]: > 50 µM (inactive)
